Source: patent US20060128577A1, “Use of alkoxylated hydroxycarboxylic acid esters for solubilizing perfume oils in water” (priority 2004, published 2006)

Assay: Solubilizing effect of surfactants for perfume oil in water (10% by weight aqueous surfactant solution, perfume oil quantity before clouding)
Format: physicochemical
Settings: 10% by weight aqueous solution of surfactant, higher = better solubilizing effect
Description: 1. In order to test the effect according to the invention, a 10% by weight aqueous solution of various surfactants was prepared. To this end, the surfactant was first mixed with the perfume oil and water was then added. The higher the percentage content of perfume oil, the better the solubilizing effect of the surfactant. In Table 1 below, V stands for known products and E for alkoxylated esters according to the invention.
Examples E1 and E2 according to the invention use a citric acid ester as described in 1.1 or 1.2.

Quantity (% by wt.) before clouding (perfume oil: Lemon oil terpene): 4 % by wt.
Quantity (% by wt.) before clouding (perfume oil: Octyl aldehyde): 2 % by wt.
Quantity (% by wt.) before clouding (perfume oil: Orange oil): 4 % by wt.
Substance: 2-Hydroxy-C12-(PO)1-(EO)9-glycol ether [Example V1a]
